The values below come from US20150352078A1, “PHARMACEUTICAL COMPOSITION FOR DISEASES CAUSED BY PATHOGENIC MICROORGANISMS SUCH AS CANDIDA” (POLA PHARMA INC., priority 2013, published 2015).

One test deals with Candida albicans. The test can be described thus: In vitro antifungal activity on Candida albicans, broth microdilution method. It counts as cell-based. To be noted: 48 hours, 80% growth inhibition, turbidity at 630 nm, read-out: minimum growth inhibitory concentration (MIC80). How it is done:
The minimum growth inhibitory concentration (MIC) was measured by means of the broth microdilution method (medicament ×2 dilution series) based on the use of […] medium (pH 7.0) buffered with 0.165 M morpholinopropanesulfonic acid. 100 μL of test microorganism yeast cells/sterilized physiological saline suspensions (1 to 5×10^3 cells/mL) and 100 μL of media previously added with respective compounds and medium not added with, compounds as a control were dispensed into respective wells of flat-bottom microculture plate.

For the next test, the system named is Trichomonas vaginalis. The test can be described thus: Effect on growth of clinically isolated Trichomonas vaginalis in Trichomonas medium F (Neutral Red colour, microscopic observation). It counts as cell-based. To be noted: for MIC: Trichomonas vaginalis, 72 hours culture, read-out: minimum growth inhibitory concentration (MIC); for Color: Neutral Red marker (yellow = acid production/growth); for Color / Result of microscopic observation: 37° C., 72 hours; for Result of microscopic observation: inverted microscope. How it is done: The effect on Trichomonas vaginalis was investigated for luliconazole of the compound represented by the general formula (1). That is, 5×10^6 cells of clinically isolated Trichomonas vaginalis were seeded in Trichomonas medium F (6.5 mL, contained in tube) produced by Fujiyakuhin Co., Ltd. containing Neutral Red as a marker, and the preculture was carried out for 72 hours (preculture). It was confirmed that Trichomonas grew, the acid was actively produced, and Neutral Red was changed to be yellow. After that, the preculture was added to Trichomonas medium F by every 100 μL in order to carry out the main culture, to which 0.5 mL of a test solution was added. In this situation, the number of protozoas in the solution of preculture was 1.5×10^5 cells/mL. Three series of test solutions were prepared, in which the luliconazole concentrations were 200 μM (final concentration: 35.2 μM), 100 μM (final concentration: 17.6 μM), and 50 μM (final concentration: 8.8 μM), as luliconazole dissolved in 10% methanol saline solution. 0.5 mL of vehicle was added as a control. As for the vehicle, 10% methanol saline solution (final concentration: 0 μM) was used. Stirring was sufficiently performed after the addition, followed by culturing at 37° C. for 72 hours. After the completion of the cultivation, the color was discriminated, and the state of protozoas was observed by using an inverted microscope.
The same or equivalent investigation as that of Example 1 was performed while changing luliconazole to lanoconazole.

Test [1] has as its system Chlamydia trachomatis (D/UW3/Cx). The test can be described thus: Anti-intracellular parasite action on Chlamydia trachomatis cultured in HeLa 229 host cells, fluorescent staining of inclusion bodies. The test is classed as cell-based. The procedure:
The anti-intracellular parasite action was investigated by using Chlamydia trachomatis (D/UW3/Cx). That is, Chlamydia trachomatis was cultured in the presence of ×2 dilution series of 8 to 64 μg/ml of luliconazole by using HeLa 229 cells as the host. MEM added with 8% thermally inactivated FBS, to which 1 μg/ml of cyclohexamide was added, was used as the medium, and the culture was performed for 72 hours in 5% carbon dioxide gas at 37° C. After the culture, Chlamydia inclusion bodies were subjected to the fluorescent staining to be apple green with Chlamydia FA reagent “Seiken” (produced by DENKA SEIKEN Co., Ltd.), and the observation was performed by using a fluorescence microscope.

The next test has as its system protozoa. To be noted: stated as known; cited from earlier work.
A further test deals with Chlamydia. To be noted: stated as known; cited from earlier work.

Structures are written as SMILES. Converted amounts (≈) assume the structure as drawn. Like-named read-outs stand apart in the source and are kept apart here.

On to `N#C/C(=C1/SCC(c2ccccc2Cl)S1)n1ccnc1` (centres unmarked) [Lanoconazole, 4-(2-chlorophenyl)-1,3-dithiolane-2-ylidene-1-imidazolyl acetonitrile], for which the MIC80 came to 0.125 µg/mL (≈ 0.391 µM) with Candida albicans (strain IFO0197, 35° C.); 0.0625 µg/mL (≈ 0.195 µM) in the test on Candida albicans (strain IFO0579, 35° C.); 0.0625 µg/mL (≈ 0.195 µM) in the test with Candida albicans (strain IFO1269, 35° C.); 0.5 µg/mL (≈ 1.56 µM) in the test on Candida albicans (strain TIMM3164, 35° C.). Further, in the test on Trichomonas vaginalis, the MIC was about 17.6 µM (≈ 5.63 µg/mL). Also, the Color result with Trichomonas vaginalis (final concentration 8.8 μM) is recorded as “yellow”; in the test with Trichomonas vaginalis (final concentration 17.6 μM), “red”; with Trichomonas vaginalis (final concentration 35.2 μM) it was “red”. The results for the “Result of microscopic observation” value in the test on Trichomonas vaginalis (final concentration 17.6 μM) and in the test with Trichomonas vaginalis (final concentration 35.2 μM) were “protozoas were observed slightly” and “no protozoa was observed”, respectively. The “growth of Trichomonas” value in the test with Trichomonas vaginalis (no concentration stated) was “inhibits the growth”.
As to `N#C/C(=C1/SC[C@@H](c2ccc(Cl)cc2Cl)S1)n1ccnc1` [Luliconazole, (R)-(−)-(E)-[4-(2,4-dichlorophenyl)-1,3-dithiolane-2-ylidene]-1-imidazolyl acetonitrile], the MIC in test [1] (Chlamydia trachomatis, HeLa 229 host cells, 72 hours culture, read-out: MIC with respect to Chlamydia trachomatis) was 32 µg/mL (≈ 90.3 µM); in the test on Trichomonas vaginalis it was about 8.8 µM (≈ 3.12 µg/mL). The “observation result of Chlamydia inclusion bodies” value in test [1] (treatment with 8 μg/mL, FIG. 1 panel (A)) was “dot-shaped Chlamydia inclusion bodies stained apple green were observed”; in test [1] (treatment with 16 μg/mL, FIG. 1 panel (B)) it was “dot-shaped Chlamydia inclusion bodies stained apple green were observed”; in test [1] (treatment with 32 μg/mL, FIG. 1 panel (C)), “No inclusion body was found”. In addition, the MIC80 turned out to be 0.0625 µg/mL (≈ 0.176 µM) in the test on Candida albicans (strain IFO0197, 35° C.); 0.0313 µg/mL (≈ 0.0883 µM) in the test on Candida albicans (strain IFO0579, 35° C.); 0.0625 µg/mL (≈ 0.176 µM) with Candida albicans (strain IFO1269, 35° C.); 0.5 µg/mL (≈ 1.41 µM) with Candida albicans (strain TIMM3164, 35° C.). Moreover, the “growth of Trichomonas” value in the test with Trichomonas vaginalis (at 8.8 μM) is given as “inhibits the growth”. Also, the Color result with Trichomonas vaginalis (final concentration 8.8 μM) is reported as “yellow”; with Trichomonas vaginalis (final concentration 17.6 μM), “red”; in the test with Trichomonas vaginalis (final concentration 35.2 μM), “red”. The “Result of microscopic observation” value in the test with Trichomonas vaginalis (final concentration 8.8 μM) is on record as “protozoas were observed slightly”; with Trichomonas vaginalis (final concentration 17.6 μM), “no protozoa was observed”; in the test on Trichomonas vaginalis (final concentration 35.2 μM), “no protozoa was observed”.
As to `CCC(C)(C)c1ccc(CC(C)CN2C[C@@H](C)O[C@@H](C)C2)cc1` (some centres unmarked) [amorolfin], the antiprotozoal action result in the test on protozoa was “do not have”. The anticlamydial action entry in the test with Chlamydia was “do not have”.
In the case of `c1ccc(-c2ccc(C(c3ccccc3)n3ccnc3)cc2)cc1` (centres unmarked) [bifonazole], the antiprotozoal action entry in the test with protozoa was “do not have”. The anticlamydial action result with Chlamydia is recorded as “do not have”.
Consider `CN(Cc1ccc(C(C)(C)C)cc1)Cc1cccc2ccccc12` [butenafine], for which the antiprotozoal action result in the test on protozoa is on record as “do not have”. Further, the anticlamydial action entry in the test on Chlamydia is reported as “do not have”.
As to `Clc1ccc(COC(Cn2ccnc2)c2ccc(Cl)cc2Cl)c(Cl)c1` (centres unmarked) [miconazole], the antiprotozoal action entry in the test with protozoa is “do not have”. The anticlamydial action result in the test on Chlamydia is “do not have”.
